In this experiment the test system is P388 leukemia ip, CD2F1 mice, survival T/C. Put plainly: NCI In Vivo Anticancer Drug Screen. Data for tumor model P388 Leukemia (intraperitoneal) in CD2F1 (CDF1) mice. Conditions: endpoint: median survival time, higher = longer survival. In short, it runs like this: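 Mice carrying the transplanted tumor received test compound or vehicle. Survival was recorded in each group, and the value is the treated-group measurement divided by that of the vehicle-treated control group.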

Where [1] appears, read: dose: 60.0 mg/kg/injection, schedule: Q01DX005 (ip), vehicle: saline with Tween-80.
Setting [2] is: dose: 50.0 mg/kg/injection, schedule: Q01DX009 (ip), vehicle: saline with Tween-80.
[3] abbreviates: dose: 120.0 mg/kg/injection, schedule: Q01DX005 (ip), vehicle: saline with Tween-80.
The mark [4] stands for this setting: dose: 50.0 mg/kg/injection, schedule: Q01DX005 (ip), vehicle: Klucel (hydroxypropylcellulose) (HPC).
Where [5] appears, read: dose: 100.0 mg/kg/injection, schedule: Q01DX005 (ip), vehicle: Klucel (hydroxypropylcellulose) (HPC).
Where [6] appears, read: dose: 240.0 mg/kg/injection, schedule: Q01DX005 (ip), vehicle: saline with Tween-80.

Molecules are shown by their SMILES. “And” between values parts separate entries of the source, which are not always exact repeats. Equal values may be shown once. Toxic doses and inconclusive results are not listed.

In PubChem BioAssay AID330 (DTP/NCI, 2004) one finds T/C data, which are given here for 20 compounds.

Regarding `COC(=O)c1cc2cc3ccccc3cc2cc1C(=O)OC`, the T/C reads like this: (dose: 15.0 mg/kg/injection, schedule: Q01DX005 (ip), vehicle: saline with Tween-80) 100 % of control; (dose: 30.0 mg/kg/injection, schedule: Q01DX005 (ip), vehicle: saline with Tween-80) 101 % of control; under setting [1], 102 % of control.
In the case of `CNC(=O)Oc1ccc(/C=N/Sc2cccc([N+](=O)[O-])c2)cc1`, the T/C by setting is: under setting [2], 101 % of control; (dose: 100.0 mg/kg/injection, schedule: Q01DX009 (ip), vehicle: saline with Tween-80) 89 % of control.
`C=C1CCN(c2ccc(F)cc2)C1=O`: the T/C was 100 % of control and 103 % of control and 90 % of control (dose: 4.0 mg/kg/injection, schedule: Q01DX009 (ip), vehicle: saline + alcohol); 104 % of control and 107 % of control and 94 % of control (dose: 8.0 mg/kg/injection, schedule: Q01DX009 (ip), vehicle: saline + alcohol); 110 % of control and 97 % of control (dose: 16.0 mg/kg/injection, schedule: Q01DX009 (ip), vehicle: saline + alcohol); 98 % of control and 103 % of control and 104 % of control (dose: 32.0 mg/kg/injection, schedule: Q01DX009 (ip), vehicle: saline + alcohol); 98 % of control and 100 % of control and 95 % of control (dose: 64.0 mg/kg/injection, schedule: Q01DX009 (ip), vehicle: saline + alcohol).
With `COC(=O)c1nc(N)nc(C(=O)OC)c1C(=O)c1c(C)[nH]c2ccccc12`, the T/C is, setting by setting: under setting [1], 114 % of control; under setting [3], 91 % of control.
With `O=c1[nH]c2cc([N+](=O)[O-])ccc2nc1/C=C(\O)c1ccc(F)cc1`, the T/C is, setting by setting: (dose: 60.0 mg/kg/injection, schedule: Q01DX005 (ip), vehicle: Klucel + Tween-80) 102 % of control; (dose: 120.0 mg/kg/injection, schedule: Q01DX005 (ip), vehicle: Klucel + Tween-80) 86 % of control.
On to `C[C@]12CC[C@H](O)C[C@@H]1CC[C@@H]1[C@@H]2C(=O)C[C@@]2(C)[C@H]1CC[C@]2(O)C(=O)CBr`, for which the T/C (dose: 264.0 mg/kg/injection, schedule: Q04DX003 (ip), vehicle: saline with Tween-80) is 109 % of control; the T/C (dose: 400.0 mg/kg/injection, schedule: Q04DX003 (ip), vehicle: saline with Tween-80) is 100 % of control; the T/C (dose: 600.0 mg/kg/injection, schedule: Q04DX003 (ip), vehicle: saline with Tween-80) is 95 % of control.
For `N#CC(C#N)C(=O)c1ccccc1`, the T/C (dose: 50.0 mg/kg/injection, schedule: Q04DX003 (ip), vehicle: saline) is 103 % of control; the T/C (dose: 100.0 mg/kg/injection, schedule: Q04DX003 (ip), vehicle: saline) was 102 % of control; the T/C (dose: 200.0 mg/kg/injection, schedule: Q04DX003 (ip), vehicle: saline) is 95 % of control; the T/C (dose: 400.0 mg/kg/injection, schedule: Q04DX003 (ip), vehicle: saline) is 95 % of control.
As for `OC(CC1CCCCN1)c1ccccc1` (stereo not given), the T/C is, setting by setting: (dose: 12.5 mg/kg/injection, schedule: Q01DX005 (ip), vehicle: saline) 98 % of control; (dose: 12.5 mg/kg/injection, schedule: Q01DX009 (ip), vehicle: saline with Tween-80) 107 % of control; (dose: 25.0 mg/kg/injection, schedule: Q01DX005 (ip), vehicle: saline) 105 % of control; (dose: 25.0 mg/kg/injection, schedule: Q01DX009 (ip), vehicle: saline with Tween-80) 101 % of control; (dose: 50.0 mg/kg/injection, schedule: Q01DX005 (ip), vehicle: saline) 115 % of control; under setting [2], 100 % of control and 102 % of control.
Take `CC[C@@]1(CCC(=O)OC)CCC(=O)N2CC[C@@]3(C(=O)Nc4ccccc43)[C@@H]21`: the T/C was 100 % of control under setting [4]; 95 % of control under setting [5]; 91 % of control (dose: 200.0 mg/kg/injection, schedule: Q01DX005 (ip), vehicle: Klucel (hydroxypropylcellulose) (HPC)).
Regarding `CCOC(CNC(C)c1ccc2cc(OC)c(OC)cc2c1)OCC` (stereo not given), the T/C (dose: 25.0 mg/kg/injection, schedule: Q01DX009 (ip), vehicle: Klucel (hydroxypropylcellulose) (HPC)) is 100 % of control; the T/C (dose: 50.0 mg/kg/injection, schedule: Q01DX009 (ip), vehicle: Klucel (hydroxypropylcellulose) (HPC)) is 114 % of control; the T/C (dose: 100.0 mg/kg/injection, schedule: Q01DX009 (ip), vehicle: Klucel (hydroxypropylcellulose) (HPC)) was 116 % of control; the T/C (dose: 200.0 mg/kg/injection, schedule: Q01DX009 (ip), vehicle: Klucel (hydroxypropylcellulose) (HPC)) is 121 % of control.
In the case of `CCCCC1(C#Cc2ccccc2)Sc2ccccc2N1C` (stereo not given), the T/C by setting is: under setting [1], 98 % of control; under setting [3], 101 % of control; under setting [6], 107 % of control.
Regarding `CC(C)C1[C@H]2OC(=O)[C@@H]1C1CCC3CN(C)C2C31C` (stereo not given in full), the T/C (dose: 1.25 mg/kg/injection, schedule: Q01DX005 (ip), vehicle: Klucel (hydroxypropylcellulose) (HPC)) is 99 % of control; the T/C (dose: 2.5 mg/kg/injection, schedule: Q01DX005 (ip), vehicle: Klucel (hydroxypropylcellulose) (HPC)) is 99 % of control; the T/C (dose: 5.0 mg/kg/injection, schedule: Q01DX005 (ip), vehicle: Klucel (hydroxypropylcellulose) (HPC)) is 96 % of control; the T/C (dose: 10.0 mg/kg/injection, schedule: Q01DX005 (ip), vehicle: Klucel (hydroxypropylcellulose) (HPC)) is 95 % of control.
Regarding `CC1=CSC2=NCCCCN12`, the T/C (dose: 6.25 mg/kg/injection, schedule: Q01DX009 (ip), vehicle: saline) is 91 % of control; the T/C (dose: 12.5 mg/kg/injection, schedule: Q01DX009 (ip), vehicle: saline) is 93 % of control; the T/C (dose: 25.0 mg/kg/injection, schedule: Q01DX009 (ip), vehicle: saline) was 92 % of control.
Regarding `C1CNC(N2CCN(C3=NCCN3)CC2)=N1`, the T/C is 104 % of control under setting [4] and 100 % of control under setting [5].
For the compound `CC(C)C1=CC23CCC4C(C)(C(=O)O)CCCC4(C)C2CC1C1C(=O)N(CCCN(C)C)C(=O)C13` (stereo not given), the T/C under setting [1] was 104 % of control and the T/C under setting [3] was 99 % of control.
For the compound `Nc1nc2c(nc(OCc3ccccc3)n2C2OC(CO)C(O)C2O)c(=O)n1N` (stereo not given), the T/C is 104 % of control under setting [1], 96 % of control under setting [3] and 100 % of control under setting [6].
Consider `Cc1ccc2ncc([N+](=O)[O-])n2c1`, for which the T/C (dose: 50.0 mg/kg/injection, schedule: Q01DX001 (ip), vehicle: saline with Tween-80) was 94 % of control; the T/C (dose: 100.0 mg/kg/injection, schedule: Q01DX001 (ip), vehicle: saline with Tween-80) is 97 % of control; the T/C (dose: 200.0 mg/kg/injection, schedule: Q01DX001 (ip), vehicle: saline with Tween-80) is 90 % of control; the T/C (dose: 400.0 mg/kg/injection, schedule: Q01DX001 (ip), vehicle: saline with Tween-80) was 94 % of control.
With `C/C(=N\NC(=S)N1CCCC1)c1nccs1`, the T/C is, setting by setting: (dose: 12.5 mg/kg/injection, schedule: Q01DX005 (ip), vehicle: saline with Tween-80) 109 % of control; (dose: 25.0 mg/kg/injection, schedule: Q01DX005 (ip), vehicle: saline with Tween-80) 104 % of control; (dose: 50.0 mg/kg/injection, schedule: Q01DX005 (ip), vehicle: saline with Tween-80) 108 % of control and 114 % of control.
On to `CCC(=O)N(C)C(C)C(=O)OC1CC(=O)N(C)c2cc(cc(OC)c2Cl)CC2(C)OC2/C=C/C(OC)C2(O)CC(OC(=O)N2)C(C)C2OC12C` (stereo not given), for which the T/C by setting is: (dose: 25.0 micrograms/kg/injection, schedule: Q01DX009 (ip), vehicle: saline + alcohol) 124 % of control; (dose: 50.0 micrograms/kg/injection, schedule: Q01DX009 (ip), vehicle: saline + alcohol) 120 % of control and 124 % of control; (dose: 100.0 micrograms/kg/injection, schedule: Q01DX009 (ip), vehicle: saline + alcohol) 124 % of control; (dose: 800.0 micrograms/kg/injection, schedule: Q01DX009 (ip), vehicle: saline + alcohol) 152 % of control.
`NC(C(=O)O)c1cc(=O)[nH]o1` (stereo not given): the T/C is, setting by setting: (dose: 2.5 mg/kg/injection, schedule: Q01DX009 (ip), vehicle: Klucel (hydroxypropylcellulose) (HPC)) 98 % of control; (dose: 5.0 mg/kg/injection, schedule: Q01DX009 (ip), vehicle: Klucel (hydroxypropylcellulose) (HPC)) 93 % of control; (dose: 10.0 mg/kg/injection, schedule: Q01DX009 (ip), vehicle: Klucel (hydroxypropylcellulose) (HPC)) 101 % of control.
